Reference: paper PMC9589286, “Ruthenium polypyridine complexes with triphenylamine groups as antibacterial agents against Staphylococcus aureus with membrane-disruptive mechanism” (Frontiers in Chemistry, 2022)

Legend:
[1] = system: Staphylococcus aureus biofilm; assay: Biofilm formation, crystal violet staining; format: cell-based
Procedure: 24 well plate was used for biofilm determination. The overnight cultured Staphylococcus aureus strain was diluted 1000 times with fresh TSB medium. Then 2 ml of that diluted bacterial solution was mixed with 500 µL Ru-3 of different concentrations in a 24 well plate. After incubation at 37°C for 48 h, the bacterial suspension was removed and the plate was washed three times with PBS. The adherent bacteria were dried overnight at 37°C and then dyed through 0.1% crystal violet solution. After 2 min, taking out the crystal violet solution and wash the plate with PBS again. And then, adding 1 ml acetic acid and 1 ml water, the formation of biofilm can be determined by monitoring the absorbance at 595 nm.

[2] = system: Galleria mellonella; assay: Toxicity in insect model Galleria mellonella; format: in vivo; conditions: 64 mg kg^−1, larvae, 120 h
Procedure: Based on the excellent antibacterial effect of Ru-3 in vitro, its biosafety was further evaluated. Firstly, the hemolytic activity of ruthenium complexes on rabbit red blood cells was measured to study their toxicity. […] In view of its good compatibility with mammalian red blood cells, the toxicity of Ru-3 to eukaryotes was also studied. Herein, Ru-3 was tested with Gallery melonella larvae. […] When the concentration of Ru-3 was 64 mg kg^−1, the survival rate was still 75%.
FIGURE 15 Test results of Ru compounds toxicity (A) % hemolysis at 256 μg ml^−1 of Ru compounds. (B) Kaplan-Meier survival curves. […] The larvae were incubated at 37.5°C and live/dead scores were conducted at 120 h (C) H&E staining images of the infected tissues with different treatments.

[3] = Partition coefficient, shake flask 1-octanol/PBS; format: physicochemical
Procedure: The partition coefficients of all complexes were determined by standard shake flask method in 1-octanol and buffer liquid system ([Yang et al., 2021]). In brief, the octanol/water partition coefficient is obtained by the incubation of 2 ml of 25 μg ml^−1 ruthenium complex 1-octanol and 2 ml PBS samples. After shaking the solution for 6 h, the samples were stood for 2 h. The absorbance of octanol complex at 282 nm before and after oscillation was measured. The absorbance of 1-octanol before oscillation minus the absorbance of 1-octanol after oscillation is the absorbance of the complex in water. Each experiment was repeated three times. The partition coefficient is reported as the number of octanol divided by the number of water.

[4] = system: Staphylococcus aureus; assay: Drug resistance study, 20 generations at sub inhibitory concentration; format: cell-based
Procedure: After Staphylococcus aureus was cultured for 5 h, the bacteria were diluted 1000 times with fresh TSB and the MIC of Ru-3 was measured. The bacterial solution grown at the sub inhibitory concentration of compound Ru-3 was inoculated into fresh TSB medium for 5 h, then the MIC was measured, and the above procedure was repeated for 20 generations. Ampicillin was used as the control.

[5] = system: Staphylococcus aureus hemolysin; assay: Toxin (hemolysin) secretion, rabbit blood cell hemolysis by culture supernatant; format: cell-based
Procedure: Firstly, S. aureus was cultured overnight and diluted 1000 times with fresh TSB, then a mixture of Ru-3 of 1 μg ml^−1 or 2 μg ml^−1 and Staphylococcus aureus solution was cultured in a shaking Table at 37°C for 18 h. After culturing, centrifuging (5000 rpm, 2 min) Staphylococcus aureus solution. And rabbit blood cells were prepared with PBS buffer (washing rabbit blood three times). Blood cells were collected by centrifugation (2000 rpm, 2 min). Secondly, a mixture containing 1 ml PBS buffer, 150 μL supernatant and 25 μL blood cells was cultured at 37°C for 30 min. Then cultured supernatant was obtained by centrifugation (2000 rpm, room temperature, 2 min). Finally, the optical density of the supernatant was measured at 540 nm.

[6] = system: Staphylococcus aureus; assay: DiSC3(5) and DAPI/PI fluorescence staining; format: cell-based; conditions: 4 μg ml^−1, 2 h
Procedure: Firstly, S. aureus was cultured in TSB medium to exponential phase. Exponential growth bacteria were collected by centrifugation at 5000 rpm for 2 min, then washed with PBS and diluted to OD600 value of 0.3. Secondly, Ru-3 (4 μg ml^−1) was added to the bacterial suspension solution and incubated at 37°C for 2 h, then the supernatant was removed by centrifuging. Thirdly, the bacterial was washed with PBS for three times and suspendedin 500 μL PBS. Subsequently, adding 20 μL DiSC3(5) (30 μM), incubating for 1 h under dark conditions. For DAPI and PI, adding 20 μL DAPI (10 μg ml^−1), incubating for 15 min under dark conditions. Next, adding 20 μL PI (15 μg ml^−1) in the same tube, and incubating for 15 min under dark conditions. After that, centrifuge, removing the supernatant. Eventually, suspending with 500 uL PBS and 20 μL samples were transfered on glass slides and observed under fluorescent cell imager.

[7] = system: Staphylococcus aureus in biofilm; assay: Killing bacteria in established biofilm; format: cell-based; conditions: 32 μg ml^−1; initial 8.62
Procedure: To establish bacterial biofilm, the overnight cultured Staphylococcus aureus strain was diluted 1000 times with fresh TSB medium, then the bacterial suspension was transferred to 96 well plate and cultured for 24 h. Subsequently, the supernatant was removed and the formed biofilm was washed 3 times with PBS solution. 200 μL solution containing Ru-3 of different concentrations (512, 256, 128, 64, 32, 16, 8, 4 μg ml^−1) were added and further incubated at 37°C for 24 h. Biofilm without Ru-3 were used as positive controls. Then the supernatant was discarded and the residual biofilm was cleaned using 200 μL PBS 3 times. Next, fresh medium was added to culture for 24 h ([Yang et al., 2021]). The solution after culture was diluted 1000 times and 100 μL was taken out for plate coating and counting.

[8] = system: Staphylococcus aureus; assay: In vivo antibacterial activity, mouse skin infection model; design: species or system mice; conditions: cream with 50 μg ml^−1, 4 times a day, after 4 days
Procedure: S. aureus was cultured in TSB medium to exponential phase. Bacterial precipitates were collected and washed with PBS three times by centrifugation, which was diluted to OD600 = 1 (1.02 × 10^8 CFU/ml) with sterile normal saline. The day before the infection, the hair on the back of the mice was shaved off. Then depilatory cream (Veet®) was used to remove the remaining hair. Subsequently, 100 μL S. aureus was injected in subcutaneous and the abscess formed after 12 h later. All mice infected with S. aureus were divided into two groups (n = 5 in each group), including control group and treatment group, Ru-3 (0.05 mg ml^−1), which was fully mixed in sterile cream. Afterwards, mouse abscesses were treated with creams containing Ru-3 4 times a day. After 10 days, the experiment was ended. The study was conducted in strict accordance with NIH guidelines for the care and use of laboratory animals (NIH Publication No. 85–23, revised in 1985), and was reviewed and approved by the institutional animal care and use Committee of Guangxi Normal University (Guilin, China).

## [Ru(dmb)2PMA] (PF6)2 [Ru-3]
[1]; 1 μg ml^−1, 48 h
  biofilm formation reduced by: 27%
[1]; 1 μg/mL
  Nomalized Biofilm formation: 73%
[1]; 2 μg ml^−1, 48 h
  biofilm formation reduced by: 41%
[1]; 2 μg/mL
  Nomalized Biofilm formation: 59%
[2]
  survival rate: 75%
[3]
  LgP: 1.79
  logD o/w: ca. 1.7885
[4]; 20 passages at sublethal concentration
  increase of MIC value after 20 generations: four
[4]; ampicillin, polymyxin B, tetracycline, clindamycin resistant S. aureus obtained after 20 generations
  MIC values against antibiotic resistant S. aureus: almost the same as the wild type
[5]; 1 μg ml^−1
  Toxin reduced by: 38%
[5]; 2 μg ml^−1
  Toxin reduced by: 63%
[6]
  DAPI/PI fluorescence: blue and red fluorescence
  membrane depolarization, DiSC3(5) fluorescence: strong green fluorescence
[7]
  number of the survival Staphylococcus aureus in the biofilm: 0 log10 colony-forming units per milliliter (CFU/ml)
[8]
  degree of wound healing: increased significantly
